Laboratory results taken from paper PMC11766267 (International Journal of Molecular Sciences, 2025).

Columns and labels:
[1] = set-up: method as in PMID 15863696; details: cited from earlier work
WI-38 = test: MTT cytotoxicity assay, normal cell line WI-38; assay type: cell-based, human; details: normal (non-cancer) cell line, 24 h treatment
Protocol: (§1) Subsequently, 100 µL of dimethyl sulfoxide was introduced to dissolve the insoluble formazan.

[2] = MTT cytotoxicity assay, normal cell line WI-38; assay type: cell-based, human; details: human, WI-38 cells (normal human lung fibroblasts), normal (non-cancer) cell line, 24 h treatment
Protocol: as §1

MCF-7 = test: MTT cytotoxicity assay, MCF-7; assay type: cell-based, human; details: Homo sapiens, MCF7, 24 h, 24 h treatment, mean ± SD of triplicate
Protocol: as §1

[3] = system: HCT-116, MDA-MB-231, HeLa, and MCF-7; test: MTT cytotoxicity assay, ranges stated over several cell lines; assay type: cell-based; details: Homo sapiens, HCT-116, MDA-MB-231, HeLa, MCF-7; range; read-out: IC50 values, range over the cancer cell lines tested
How it was run: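 MTT read-out; insoluble formazan dissolved in 100 µL dimethyl sulfoxide before measurement.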

HeLa = test: MTT cytotoxicity assay, HeLa; assay type: cell-based; details: Homo sapiens, 24 h treatment, mean ± SD of triplicate
Protocol: as §1

MDA-MB-231 = test: MTT cytotoxicity assay, MDA-MB-231; assay type: cell-based; details: Homo sapiens, 24 h treatment, mean ± SD of triplicate
Protocol: as §1

HCT-116 = test: MTT cytotoxicity assay, HCT-116; assay type: cell-based; details: Homo sapiens, 24 h treatment, mean ± SD of triplicate
Protocol: as §1

Row | Compound | Concentration at which estrogenic activity is shown [1] [mol] | IC50 (WI-38) [µM] | IC50 at 24 h [2] [µM] | IC50 (MCF-7) [µM] | IC50 [3] [µM] | IC50 (HeLa) [µM] | IC50 (MDA-MB-231) [µM] | IC50 (HCT-116) [µM]
1 | O=C(/C=C/c1ccc(O)cc1)c1ccccc1 [4-hydroxychacone] | 0.0001 |  |  |  |  |  |  | 
2 | COc1cccc(C(=O)/C=C/c2ccc(OCc3ccccc3)c(OC)c2)c1 [Compound 4u, (E)-3-(4-(Benzyloxy)-3-methoxyphenyl)-1-(3-methoxyphenyl)prop-2-en-1-one] |  | 39 ± 2.4 | 40 to 40.1 | 82.8 ± 4.1 | 55.6 to 82.8 | > 100 | > 100 | 95.3 ± 4.9
